{"source": "PubChem BioAssay AID2060906", "about": "(Molecular Pharmacology Branch, DTP, NCI, 2025);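 also: spheroids exposed to compounds for seven days before readout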;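 as to viability, T/C: luminescence viability expressed relative to DMSO vehicle wells set as 100%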", "system": "485176-168-R4-J1-PDC complex spheroid growth", "assay": "Anticancer human tumor 485176-168-R4-J1-PDC patient-derived pancreatic adenocarcinoma cell line growth inhibition [RAS]", "details": "for IC50: curve of first compound; for viability, T/C: stronger effect = lower value", "summary_of_the_method": "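Agents were tested in combination matrices in half-log decrements from a top concentration at or near clinical Cmax (10 microM if undetermined). Targets were multi-cell spheroids of tumour lines plus HUVEC and MSC stromal cells.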", "key": {"[1]": {"details": "second compound 0.000949 µM, first compound 0.0316 µM"}, "[2]": {"details": "second compound 0.000949 µM, first compound 0.1 µM"}, "[3]": {"details": "second compound 0.000949 µM, first compound 0.316 µM"}, "[4]": {"details": "second compound 0.000949 µM, first compound 1 µM"}, "[5]": {"details": "second compound 0.000949 µM, first compound 3.16 µM"}, "[6]": {"details": "second compound 0.000949 µM, first compound 10 µM"}, "[7]": {"details": "second compound 0.003 µM, first compound 0.0316 µM"}, "[8]": {"details": "second compound 0.003 µM, first compound 0.1 µM"}, "[9]": {"details": "second compound 0.003 µM, first compound 0.316 µM"}, "[10]": {"details": "second compound 0.003 µM, first compound 1 µM"}, "[11]": {"details": "second compound 0.003 µM, first compound 3.16 µM"}, "[12]": {"details": "second compound 0.003 µM, first compound 10 µM"}, "[13]": {"details": "second compound 0.00949 µM, first compound 0.0316 µM"}, "[14]": {"details": "second compound 0.00949 µM, first compound 0.1 µM"}, "[15]": {"details": "second compound 0.00949 µM, first compound 0.316 µM"}, "[16]": {"details": "second compound 0.00949 µM, first compound 1 µM"}, "[17]": {"details": "second compound 0.00949 µM, first compound 3.16 µM"}, "[18]": {"details": "second compound 0.00949 µM, first compound 10 µM"}, "[19]": {"details": "second compound 0.03 µM, first compound 0.0316 µM"}, "[20]": {"details": "second compound 0.03 µM, first compound 0.1 µM"}, "[21]": {"details": "second compound 0.03 µM, first compound 0.316 µM"}, "[22]": {"details": "second compound 0.03 µM, first compound 1 µM"}, "[23]": {"details": "second compound 0.03 µM, first compound 3.16 µM"}, "[24]": {"details": "second compound 0.03 µM, first compound 10 µM"}, "[25]": {"details": "second compound 0.0949 µM, first compound 0.0316 µM"}, "[26]": {"details": "second compound 0.0949 µM, first compound 0.1 µM"}, "[27]": {"details": "second compound 0.0949 µM, first compound 0.316 µM"}, "[28]": {"details": "second compound 0.0949 µM, first compound 1 µM"}, "[29]": {"details": "second compound 0.0949 µM, first compound 3.16 µM"}, "[30]": {"details": "second compound 0.0949 µM, first compound 10 µM"}, "[31]": {"details": "second compound 0.3 µM, first compound 0.0316 µM"}, "[32]": {"details": "second compound 0.3 µM, first compound 0.1 µM"}, "[33]": {"details": "second compound 0.3 µM, first compound 0.316 µM"}, "[34]": {"details": "second compound 0.3 µM, first compound 1 µM"}, "[35]": {"details": "second compound 0.3 µM, first compound 3.16 µM"}, "[36]": {"details": "second compound 0.3 µM, first compound 10 µM"}}, "data": [{"smiles": "C[C@@H](NC(=O)c1ncnc(N)c1Cl)c1ncc(C(=O)Nc2cc(C(F)(F)F)c(Cl)cn2)s1", "note": "+ CCn1c(-c2cccnc2C(C)OC)c2c3cc(ccc31)N1CCOC(CC(NC(=O)C(C(C)C)N(C)C(=O)C3(F)CCN(C(=O)C#CC(C)(C)N(C)C)CC3)C(=O)N3CCCC(N3)C(=O)OCC(C)(C)C2)C1", "values": [{"measurement": "IC50", "setting": "second compound 0.000949 µM", "result": "> 10", "unit": "µM"}, {"measurement": "IC50", "setting": "second compound 0.003 µM", "result": "> 10", "unit": "µM"}, {"measurement": "IC50", "setting": "second compound 0.00949 µM", "result": "> 10", "unit": "µM"}, {"measurement": "IC50", "setting": "second compound 0.03 µM", "result": "> 10", "unit": "µM"}, {"measurement": "IC50", "setting": "second compound 0.0949 µM", "result": "> 10", "unit": "µM"}, {"measurement": "IC50", "setting": "second compound 0.3 µM", "result": 9.48, "unit": "µM"}, {"measurement": "viability, T/C", "setting": "[1]", "result": 101, "unit": "%"}, {"measurement": "viability, T/C", "setting": "[2]", "result": 91.7, "unit": "%"}, {"measurement": "viability, T/C", "setting": "[3]", "result": 100, "unit": "%"}, {"measurement": "viability, T/C", "setting": "[4]", "result": 85.9, "unit": "%"}, {"measurement": "viability, T/C", "setting": "[5]", "result": 72.2, "unit": "%"}, {"measurement": "viability, T/C", "setting": "[6]", "result": 54.5, "unit": "%"}, {"measurement": "viability, T/C", "setting": "[7]", "result": 88.6, "unit": "%"}, {"measurement": "viability, T/C", "setting": "[8]", "result": 89.4, "unit": "%"}, {"measurement": "viability, T/C", "setting": "[9]", "result": 86.2, "unit": "%"}, {"measurement": "viability, T/C", "setting": "[10]", "result": 70.6, "unit": "%"}, {"measurement": "viability, T/C", "setting": "[11]", "result": 71, "unit": "%"}, {"measurement": "viability, T/C", "setting": "[12]", "result": 59.6, "unit": "%"}, {"measurement": "viability, T/C", "setting": "[13]", "result": 87.1, "unit": "%"}, {"measurement": "viability, T/C", "setting": "[14]", "result": 98.5, "unit": "%"}, {"measurement": "viability, T/C", "setting": "[15]", "result": 83.7, "unit": "%"}, {"measurement": "viability, T/C", "setting": "[16]", "result": 82.4, "unit": "%"}, {"measurement": "viability, T/C", "setting": "[17]", "result": 91, "unit": "%"}, {"measurement": "viability, T/C", "setting": "[18]", "result": 53, "unit": "%"}, {"measurement": "viability, T/C", "setting": "[19]", "result": 81.3, "unit": "%"}, {"measurement": "viability, T/C", "setting": "[20]", "result": 85.6, "unit": "%"}, {"measurement": "viability, T/C", "setting": "[21]", "result": 102, "unit": "%"}, {"measurement": "viability, T/C", "setting": "[22]", "result": 78.3, "unit": "%"}, {"measurement": "viability, T/C", "setting": "[23]", "result": 75.6, "unit": "%"}, {"measurement": "viability, T/C", "setting": "[24]", "result": 79.5, "unit": "%"}, {"measurement": "viability, T/C", "setting": "[25]", "result": 89.9, "unit": "%"}, {"measurement": "viability, T/C", "setting": "[26]", "result": 90.3, "unit": "%"}, {"measurement": "viability, T/C", "setting": "[27]", "result": 78.5, "unit": "%"}, {"measurement": "viability, T/C", "setting": "[28]", "result": 70.7, "unit": "%"}, {"measurement": "viability, T/C", "setting": "[29]", "result": 74, "unit": "%"}, {"measurement": "viability, T/C", "setting": "[30]", "result": 58.3, "unit": "%"}, {"measurement": "viability, T/C", "setting": "[31]", "result": 75.2, "unit": "%"}, {"measurement": "viability, T/C", "setting": "[32]", "result": 76.4, "unit": "%"}, {"measurement": "viability, T/C", "setting": "[33]", "result": 65.7, "unit": "%"}, {"measurement": "viability, T/C", "setting": "[34]", "result": 72.4, "unit": "%"}, {"measurement": "viability, T/C", "setting": "[35]", "result": 59, "unit": "%"}, {"measurement": "viability, T/C", "setting": "[36]", "result": 49.7, "unit": "%"}]}, {"smiles": "C[C@@H](NC(=O)c1ncnc(N)c1Cl)c1ncc(C(=O)Nc2cc(C(F)(F)F)c(Cl)cn2)s1", "note": "+ CCn1c(-c2cc(N3CCN(C)CC3)cnc2C(C)OC)c2c3cc(ccc31)-c1csc(n1)CC(NC(=O)C1CC1C)C(=O)N1CCCC(N1)C(=O)OCC(C)(C)C2", "values": [{"measurement": "IC50", "setting": "second compound 0.000949 µM", "result": "> 10", "unit": "µM"}, {"measurement": "IC50", "setting": "second compound 0.003 µM", "result": "> 10", "unit": "µM"}, {"measurement": "IC50", "setting": "second compound 0.00949 µM", "result": "> 10", "unit": "µM"}, {"measurement": "IC50", "setting": "second compound 0.03 µM", "result": "> 10", "unit": "µM"}, {"measurement": "IC50", "setting": "second compound 0.0949 µM", "result": 2.38, "unit": "µM"}, {"measurement": "IC50", "setting": "second compound 0.3 µM", "result": 4.37, "unit": "µM"}, {"measurement": "viability, T/C", "setting": "[1]", "result": 102, "unit": "%"}, {"measurement": "viability, T/C", "setting": "[2]", "result": 92.3, "unit": "%"}, {"measurement": "viability, T/C", "setting": "[3]", "result": 83.9, "unit": "%"}, {"measurement": "viability, T/C", "setting": "[4]", "result": 67.5, "unit": "%"}, {"measurement": "viability, T/C", "setting": "[5]", "result": 83.7, "unit": "%"}, {"measurement": "viability, T/C", "setting": "[6]", "result": 83.8, "unit": "%"}, {"measurement": "viability, T/C", "setting": "[7]", "result": 86.6, "unit": "%"}, {"measurement": "viability, T/C", "setting": "[8]", "result": 97.8, "unit": "%"}, {"measurement": "viability, T/C", "setting": "[9]", "result": 92.4, "unit": "%"}, {"measurement": "viability, T/C", "setting": "[10]", "result": 84.1, "unit": "%"}, {"measurement": "viability, T/C", "setting": "[11]", "result": 71.7, "unit": "%"}, {"measurement": "viability, T/C", "setting": "[12]", "result": 58.1, "unit": "%"}, {"measurement": "viability, T/C", "setting": "[13]", "result": 92.7, "unit": "%"}, {"measurement": "viability, T/C", "setting": "[14]", "result": 90.9, "unit": "%"}, {"measurement": "viability, T/C", "setting": "[15]", "result": 74, "unit": "%"}, {"measurement": "viability, T/C", "setting": "[16]", "result": 74, "unit": "%"}, {"measurement": "viability, T/C", "setting": "[17]", "result": 57.6, "unit": "%"}, {"measurement": "viability, T/C", "setting": "[18]", "result": 56.2, "unit": "%"}, {"measurement": "viability, T/C", "setting": "[19]", "result": 92.1, "unit": "%"}, {"measurement": "viability, T/C", "setting": "[20]", "result": 77.6, "unit": "%"}, {"measurement": "viability, T/C", "setting": "[21]", "result": 89.5, "unit": "%"}, {"measurement": "viability, T/C", "setting": "[22]", "result": 55.8, "unit": "%"}, {"measurement": "viability, T/C", "setting": "[23]", "result": 56.3, "unit": "%"}, {"measurement": "viability, T/C", "setting": "[24]", "result": 43.8, "unit": "%"}, {"measurement": "viability, T/C", "setting": "[25]", "result": 78.2, "unit": "%"}, {"measurement": "viability, T/C", "setting": "[26]", "result": 80.3, "unit": "%"}, {"measurement": "viability, T/C", "setting": "[27]", "result": 59.7, "unit": "%"}, {"measurement": "viability, T/C", "setting": "[28]", "result": 51.4, "unit": "%"}, {"measurement": "viability, T/C", "setting": "[29]", "result": 56.1, "unit": "%"}, {"measurement": "viability, T/C", "setting": "[30]", "result": 36.2, "unit": "%"}, {"measurement": "viability, T/C", "setting": "[31]", "result": 85.4, "unit": "%"}, {"measurement": "viability, T/C", "setting": "[32]", "result": 69.6, "unit": "%"}, {"measurement": "viability, T/C", "setting": "[33]", "result": 65.5, "unit": "%"}, {"measurement": "viability, T/C", "setting": "[34]", "result": 58.7, "unit": "%"}, {"measurement": "viability, T/C", "setting": "[35]", "result": 57, "unit": "%"}, {"measurement": "viability, T/C", "setting": "[36]", "result": 42.3, "unit": "%"}]}]}
